Experiment [1] deals with Fmr1 knockout (KO) or Wild Type (WT) mice. Nature of the experiment: Social recognition memory (Trial 2, social memory ratio). Format: in vivo, mouse. Conditions: for social memory, duration of sniffing: 2 months old, Study 2; for duration of sniffing, Trial 2: 150 mg/kg ip 7 days. How it is done:
(§1) Fmr1 knockout mice (KO2) mice (The Dutch-Belgium Fragile X Consortium, 1994), initially obtained from the Jackson Laboratory, and wild type (WT) littermates were generated on a C57BL/6J background and repeatedly backcrossed onto a C57BL/6J background for more than eight generations. The Fmr1 knockout mice were housed in groups of the same genotype in a temperature and humidity controlled room with a 12-h light-dark cycle (lights on from 7 am to 7 pm; testing was conducted during light phase). Room temperature and humidity were recorded continuously in the holding room while food and water were available ad libitum. Testing was conducted on healthy Fmr1 knockout mice and their wild type littermates (N=10 mice per treatment group) at 2 or 6 months of age during the behavioral experiments. Mice were housed in commercial plastic cages and experiments were conducted in line with the requirements of the UK Animals (Scientific Procedures) Act, 1986. All experiments were conducted with experimenters blind to genotype and drug treatment. Animals were allowed a minimum acclimatization period of one week prior to performing any experiment. No prophylactic or therapeutic treatment was administered during the acclimatization period.
(§2) In all cases, saline was used as a vehicle (control).
Mice were placed in a test arena/cage of the same order of magnitude in size as the adult's home cage (40×23×12 cm cage, with a Perspex lid to facilitate viewing the mice) with fresh wood chippings on the floor. A background mouse odor was created by putting in some non-experimental mice into the apparatus prior to testing. Mice were transferred to the experimental room 10-15 min prior to testing. A test subject and a juvenile were placed simultaneously into the test cage. The total duration and number of bouts of social investigation, defined as sniffing and close following (<2 cm from the tail) of the stimulus juvenile by the tested mouse, was assessed for 3 min. 30 min later, the test was repeated using the same stimulus juvenile. Data parameters collected were the total duration and total number of bouts of sniffing for the acquisition and recognition. A social memory ratio was derived, defined as trial 2/trial 1+2. Therefore, no memory (e.g. 20/(20+20)=0.5 and memory (e.g. 10/(20+10)=<0.5.
(§3) Multivariate analysis of variance was employed to assess group differences across data. Repeated measures ANOVA were performed for behavioral data. Statistically significant effects in each ANOVA were followed with post hoc comparisons, using the Newman-Keuls test (Study 1) or the Tukey test (Study 2). A p value of less than 0.05 was considered significant.
Social memory ratio was defined as the duration of sniffing bouts: trial 2/trial 1+2. Therefore, an example of no memory was (e.g. 20/(20+20)=0.5, while an example of memory was (e.g. 10/(20+10)=<0.5.

For experiment [2] the test system is unchanged. Nature of the experiment: Y-maze water maze left right discrimination. Format: in vivo, mouse. Conditions: 2 months old, 150 mg/kg once daily 7 days, Study 1. As for the experimental part:
as §1, §2
A clear Perspex Y-maze was filled with 2 cm of water at 20° C. […]

Experiment [3] shares this test system. Nature of the experiment: Successive alleys (anxiety and hyperactivity). It counts as in vivo, mouse. Conditions: 2 months old, 150 mg/kg once daily 7 days, Study 1. How it is done: as §1, §2
The apparatus consisted of four successive, linearly arranged, increasingly anxiogenic alleys (each succeeding alley was painted a lighter color, had lower walls and/or was narrower than the previous alley) made of painted wood. Each section or alley was 25 cm long. Alley 1 had 25 cm high walls, was 8.5 cm wide, and was painted black. A 0.5 cm step down led to alley 2, which was again 8.5 cm wide, but had 1.3 cm high walls and was grey. A 1.0 cm step down led to alley 3, which was 3.5 cm wide, had 0.8 cm high walls, and was white. A 0.4 cm step led down to alley 4, which was also white, but had 1.2 cm wide and 0.2 cm high walls. The apparatus was elevated by anchoring the back of alley 1 to a stand, 50 cm high. Padding was provided under arms 3 and 4 in case a mouse fell off. Each mouse was placed at the closed end of alley 1 facing the wall. Timers were started 1) for the overall length of the test (5 min)+the latency to enter each arm, and 2) for the time spent in alley 1. When the mouse placed all 4 feet on to the next alley, it was considered to have entered the alley. Total time spent in each alley (all four feet) was recorded.
as §3
The successive alleys test effectively measured anxiety (latency to enter the Alley 1) and hyperactivity (Alleys 2 to 4). Progression from Alley 1 through the successive Alleys 2, 3, and 4 was associated with exposure to an increasingly brightly colored environment with increasingly lower walls and narrower, more exposed open arms. Time spent on, and entries into, the open arms indicated anxiety; conversely, increasing time spent in more open arms reflected hyperactivity. These factors allowed for a sensitive test bracketing a range of anxiety-like behaviors together with hyperactivity.

The test system of experiment [4] is primary hippocampal neurons from Fmr1 knockout mice. Nature of the experiment: Dendritic filopodia density and maturation in vitro. Conditions: neurons from Fmr1 KO mice, 300 μM, five hours. It counts as cell-based, mouse. How it is done:
as §2
Hippocampal cell cultures were prepared from wild type and Fmr1 KO fetal mice at embryonic day of gestation 17.5 (E17.5). Mice were killed by cervical dislocation and dissociated hippocampal cells were plated in 15 mm multi well vessels (Falcon Primaria). After 5 d in vitro, green fluorescent protein (GFP) was transfected to facilitate monitoring dendritic spine morphogenesis after drug treatment (Ethell and Yamaguchi, 1999; Ethell et al., 2001, Henkemeyer et al., 2003). Dendritic spines were formed at around 16 days in vitro (DIV).
Filopodia density of GFP transfected neurons was quantified by performing Sholl analyses of stacked Zeiss confocal generated images (40× objective, stack of 20×0.2 μm). With Metamorph software, concentric equally spaced circles (every 20 μm) were drawn around the cell soma of each neuron and subsequently, the amount of filopodia was counted per circle. Averages of counts were compared with unpaired two-tailed Student's T-tests.
Spine maturity of GFP transfected neurons was analyzed with Metamorph software (Molecular Devices, Sunnyvale, Calif.). Two distal dendritic segments of 70 100 μm were chosen per neuron for spine morphometric analysis. For each spine, the length and the width were measured. The length was defined as the distance from the base to the tip of the protrusion; whereas width was defined as the maximum distance perpendicular to the long axis of the spine. Measurements were compared with unpaired two tailed Student's T-tests and ANOVA corrected for multiple comparisons.

Setting [5] is: Fmr1 KO mice, 6 months old, 150 mg/kg ip once daily 7 days.

Structures are written as SMILES.

For the compound `Cc1ncc(CO)c(CO)c1O.O=C1CC[C@@H](C(=O)O)N1` [metadoxine, pyridoxol L,2-pyrrolidon-5 carboxylate], in experiment [1] (Fmr1 KO mice, 150 mg/kg ip once daily 7 days), the “social memory, duration of sniffing” value is listed as “reversal was complete”. The “social memory, duration of sniffing” value in experiment [1] (Fmr1 KO mice, 150 mg/kg oral once daily 7 days) is recorded as “reversal was complete”. For the same compound, the “social memory, duration of sniffing” value in experiment [1] (Fmr1 KO mice, 300 mg/kg oral once daily 7 days) is recorded as “reversal was complete”. For the same compound, in experiment [1] (setting [5]), the “social memory, duration of sniffing (Trial 2)” value is recorded as “reversal by metadoxine was complete” and the “social memory, number of sniffing bouts (Trial 2)” value is recorded as “reversal for number of sniffing bouts was partial”. In addition, the “duration of sniffing, Trial 2” value in experiment [1] (KO-M: Fmr1 KO mice, 6 months old) came out at 12.7. In addition, the “social memory, duration of sniffing” value in experiment [1] (WT mice, any dose (150 mg/kg ip, 150 and 300 mg/kg oral)) was “without effect on WT mice”. Further, the “social memory, sniffing bouts and duration (Trial 2)” value in experiment [1] (WT mice, 6 months old, 150 mg/kg ip once daily 7 days) is given as “without effect on WT mice”. In addition, the “duration of sniffing, Trial 2” value in experiment [1] (WT-M: WT mice, 6 months old) is on record as 12.5. The “Y-maze water maze spatial discrimination (incorrect arm entries)” value in experiment [2] is given as “deficit was reduced”. In experiment [3] (Fmr1 KO mice), the “successive alleys, Alley 1 (anxiety)” value is reported as “complete normalization occurred”; the “successive alleys, Alley 2 (hyperactivity)” value is on record as “reversal of hyperactivity was partial”; the “successive alleys, Alley 3 (hyperactivity)” value was “hyperactivity was not reversed”; the “successive alleys, Alley 4 (hyperactivity)” value is “reversed this hyperactivity”. In experiment [3] (WT mice), the “successive alleys, Alley 1 (anxiety)” value was “no effect on WT mice”; the “successive alleys, Alley 2 (activity)” value was “no effect on WT mice”; the “successive alleys, Alley 3 (activity)” value is recorded as “no effect on WT mice”; the “successive alleys, Alley 4 (activity)” value was “no effect on WT mice”. In experiment [4], the “density of neuronal filopodia” value is reported as “reduced the aberrant increase in density of neuronal filopodia”, the filopodia length result is reported as “reversed this increase in filopodia length” and the filopodia width result is listed as “reversed the decrease in width”.

Values taken from patent publication US9851354B2, “Methods of treating fragile X syndrome and related disorders” (Alcobra Ltd., priority 2013, dated 2017).
